From PubChem BioAssay (NCI)
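All cell lines were grown in 96-well plates and treated with compound for 48 hours. Here, GI50 denotes the concentration required for 50% inhibition of growth. TGI: concentration producing complete growth inhibition.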

How the values were obtained:
Assay in all cases: inhibition of tumour cell growth, NCI panel, 48 h
[1] = test system: 786-0 renal
[2] = test system: A498 renal
[3] = test system: A549 NSCLC
[4] = test system: BT-549 breast
[5] = test system: CCRF-CEM leukemia
[6] = test system: COLO 205 colon
[7] = test system: DU-145 prostate
[8] = test system: EKVX NSCLC
[9] = test system: HCC-2998 colon
[10] = test system: HCT-116 colon
[11] = test system: HCT-15 colon
[12] = test system: HL-60(TB) leukemia
[13] = test system: HOP-62 NSCLC
[14] = test system: HOP-92 NSCLC
[15] = test system: HS 578T breast
[16] = test system: HT29 colon
[17] = test system: IGROV1 ovarian
[18] = test system: K-562 leukemia
[19] = test system: KM12 colon
[20] = test system: LOX IMVI melanoma
[21] = test system: M14 melanoma
[22] = test system: MALME-3M melanoma
[23] = test system: MCF7 breast
[24] = test system: MDA-MB-231 breast
[25] = test system: MDA-MB-435
[26] = test system: MOLT-4 leukemia
[27] = test system: NCI-H226 lung
[28] = test system: NCI-H23 lung
[29] = test system: NCI-H460 lung
[30] = test system: NCI-H522 lung
[31] = test system: NCI/ADR-RES ovarian
[32] = test system: OVCAR-3 ovarian
[33] = test system: OVCAR-4 ovarian
[34] = test system: OVCAR-5 ovarian
[35] = test system: OVCAR-8 ovarian
[36] = test system: PC-3 prostate
[37] = test system: RPMI-8226 leukemia
[38] = test system: RXF 393 renal
[39] = test system: SF-268 CNS
[40] = test system: SF-295 CNS
[41] = test system: SF-539 CNS
[42] = test system: SK-MEL-2 melanoma
[43] = test system: SK-MEL-28 melanoma
[44] = test system: SK-MEL-5 melanoma
[45] = test system: SK-OV-3 ovarian
[46] = test system: SN12C renal
[47] = test system: SNB-19 CNS
[48] = test system: SNB-75 CNS
[49] = test system: SR leukemia
[50] = test system: SW-620 colon
[51] = test system: T-47D breast
[52] = test system: TK-10 renal
[53] = test system: U251 CNS
[54] = test system: UACC-257 melanoma
[55] = test system: UACC-62 melanoma
[56] = test system: UO-31 renal

## CSC1=C(N)C(=O)c2[nH]cc(CO)c2C1=N
[1]
  GI50: 1440 nM
  TGI: 3240 nM
[2]
  GI50: 132 nM
  TGI: 269 nM
[3]
  GI50: 136 nM
  TGI: 331 nM
[4]
  GI50: 171 nM
  TGI: 313 nM
[5]
  GI50: 223 nM
  TGI: 762 nM
[6]
  GI50: 75.5 nM
  TGI: 222 nM
[7]
  GI50: 166 nM
  TGI: 308 nM
[8]
  GI50: 260 nM
  TGI: 1220 nM
[9]
  GI50: 173 nM
  TGI: 338 nM
[10]
  GI50: 256 nM
  TGI: 666 nM
[11]
  GI50: 163 nM
  TGI: 382 nM
[12]
  GI50: 222 nM
  TGI: 514 nM
[13]
  GI50: 193 nM
  TGI: 342 nM
[14]
  GI50: 499 nM
  TGI: 2300 nM
[15]
  GI50: 282 nM
  TGI: 796 nM
[16]
  GI50: 161 nM
  TGI: 498 nM
[17]
  GI50: 225 nM
  TGI: 521 nM
[18]
  GI50: 221 nM
  TGI: 534 nM
[19]
  GI50: 418 nM
  TGI: 2200 nM
[20]
  GI50: 134 nM
  TGI: 283 nM
[21]
  GI50: 139 nM
  TGI: 285 nM
[22]
  GI50: 71.4 nM
  TGI: 192 nM
[23]
  GI50: 160 nM
  TGI: 407 nM
[24]
  GI50: 236 nM
  TGI: 669 nM
[25]
  GI50: 47.3 nM
  TGI: 165 nM
[26]
  GI50: 204 nM
  TGI: 475 nM
[27]
  GI50: 206 nM
  TGI: 450 nM
[28]
  GI50: 109 nM
  TGI: 344 nM
[29]
  GI50: 154 nM
  TGI: 338 nM
[30]
  GI50: 155 nM
  TGI: 364 nM
[31]
  GI50: 239 nM
  TGI: 781 nM
[32]
  GI50: 134 nM
  TGI: 346 nM
[33]
  GI50: 123 nM
  TGI: 249 nM
[34]
  GI50: 176 nM
  TGI: 326 nM
[35]
  GI50: 275 nM
  TGI: 948 nM
[36]
  GI50: 212 nM
  TGI: 916 nM
[37]
  GI50: 293 nM
  TGI: 1200 nM
[38]
  GI50: 281 nM
  TGI: 850 nM
[39]
  GI50: 246 nM
  TGI: 873 nM
[40]
  GI50: 159 nM
  TGI: 309 nM
[41]
  GI50: 171 nM
  TGI: 309 nM
[42]
  GI50: 211 nM
  TGI: 503 nM
[43]
  GI50: 267 nM
  TGI: 618 nM
[44]
  GI50: 45.1 nM
  TGI: 164 nM
[45]
  GI50: 623 nM
  TGI: 1850 nM
[46]
  GI50: 160 nM
  TGI: 317 nM
[47]
  GI50: 155 nM
  TGI: 295 nM
[48]
  GI50: 165 nM
  TGI: 307 nM
[49]
  GI50: 221 nM
  TGI: 659 nM
[50]
  GI50: 198 nM
  TGI: 422 nM
[51]
  GI50: 264 nM
  TGI: 644 nM
[52]
  GI50: 1370 nM
  TGI: 2720 nM
[53]
  GI50: 181 nM
  TGI: 347 nM
[54]
  GI50: 134 nM
  TGI: 267 nM
[55]
  GI50: 159 nM
  TGI: 314 nM
[56]
  GI50: 154 nM
  TGI: 295 nM
